Assay results as given in patent publication US20030232834A1, “Combination therapy for the prophylaxis and treatment of hyperlipidemic conditions and disorders” (priority 2002, published 2003).

Tests used:
[1] = Water uptake experiments (Dynamic Vapor Sorption); assay type: physicochemical; settings: equilibrated under 80% relative humidity (RH) air at 25° C.
Description: A dry sample of the crystalline form having a melting point or a decomposition point of about 278° C. to about 285° C. (i.e., Form II) typically gains less than about 1% of its own weight when equilibrated under 80% relative humidity (RH) air at 25° C. […] For the present purposes, the term “essentially 0% RH” means less than about 1% RH. The term “equilibrated” means that the change in weight of a sample over time at a given relative humidity is less than 0.0003% ((dm/dt)/m0×100, where m is mass in mg, m0 is initial mass, and t is time in minutes).
Water sorption experiments are performed on a Dynamic Vapor Sorption (DVS) apparatus (DVS-1000 manufactured by Surface Measurements Systems, Inc.). Experiments are performed at 25° C. by initially drying the material of interest (about 10 mg sample) from 30% relative humidity (RH) (ambient room condition) to about 9% RH in a stepwise fashion (10% RH step) by purging with dry nitrogen until no further weight change was observed. The samples are then exposed to a stepwise (10% RH steps) increase in RH from about 0 to about 90% RH. Each successive step is initiated when the change in weight over time at the relative humidity was less than 0.0003% ((dm/dt)/m0×100, where m is mass in mg, m0 is initial mass, and t is time in minutes). […] The data are collected on a computer and analyzed using SMS' proprietary MS-Excel macro interface software.

Male beagle dogs = assay: Serum triglyceride in beagle dogs; assay type: in vivo, dog; settings: pravastatin 10 mg/kg/day dosed Weeks 1-11; Week 10; mean ± SEM, n=6
Description: Following this initial four week dose-ranging study, dogs from the two groups receiving 10 mg/kg/day pravastatin (a.m. and p.m. dosing groups) were randomized into two new treatment groups based on serum total cholesterol levels to initiate the combination treatment study. One group received an empty capsule (a.m. dosing) and 10 mg/kg/day pravastatin (p.m. dosing) and the other received 4.0 mg/kg/day compound A-5 (a.m. dosing) and 10 mg/kg/day pravastatin (p.m. dosing). A third group that had received empty capsules (vehicle) in the dose-ranging study was used for compound A-5 monotherapy and was administered 4.0 mg/kg/day compound A-5 (a.m. dosing) and an empty capsule (p.m. dosing). […]
Blood was collected from the cephalic vein of each dog into serum separator tubes. […] Commercial calibrator and quality control materials were analyzed with each run to verify assay accuracy and precision. […]
Serum lipid measurements were obtained as described in Example 3 above except that blood was collected from either the cephalic or jugular vein of each dog into serum separator tubes and the blood was centrifuged at 2000 rpm for 20 minutes. Table X-4A below reports the data measured on the effect of the compound A-5/pravastatin combination therapy on serum total cholesterol. […]

| Compound | weight gain of a dry sample (of its own weight) [1] | TOTAL SERUM TRIGLYCERIDE (Male beagle dogs) [mg/dL] |
| --- | --- | --- |
| CCCCC1(CCCC)CS(=O)(=O)c2ccc(N(C)C)cc2[C@@H](c2ccc(OCc3ccc(C[N+]45CCN(CC4)CC5)cc3)cc2)[C@H]1O.[Cl-] [Form II, (4R,5R)-1-((4-(4-(3,3-dibutyl-7-(dimethylamino)-2,3,4,5-tetrahydro-4-hydroxy-1,1-dioxido-1-benzithiepin-5-yl)phenoxy)methyl)phenyl)methyl-4-aza-1-azoniabicyclo[2.2.2]octane chloride] | less than 1% | – |
| CC[C@H](C)C(=O)O[C@H]1C[C@H](O)C=C2C=C[C@H](C)[C@H](CC[C@@H](O)C[C@@H](O)CC(=O)O)[C@H]21 [pravastatin, Pravastatin] | – | 43 ± 5 |
